Reference: patent US20220378756A1, “ACTIVATING PYRUVATE KINASE R” (FORMA Therapeutics, Inc., priority 2019, published 2022)

Test system: 2,3-DPG, ATP, p50, deformability of sickle RBCs
Assay: Phase 1, SCD patients single 700 mg dose: pharmacodynamics
Format: in vivo, human
Method: In this study, SAD/MAD cohorts are randomized (3 to 1) to receive Compound 1 or placebo (P). Compound 1 was evaluated first in 4 healthy SAD cohorts and 4 healthy MAD (14-day dosing period) cohorts. Based on the safety, and PK/PD profile from HS, Compound 1 is then evaluated in 1 SCD SAD cohort and 2 SCD MAD cohorts. Specifically, based on the safety and pharmacokinetic/pharmacodynamics (PK/PD) profile in healthy volunteer studies, Compound 1 is evaluated in patients (pts) with SCD, first in a single dose (SD or SAD) cohort and then in multiple-dose (MD or MAD) cohorts (14-day and 12-week). Safety assessments include AEs, vital signs, ECGs and laboratory parameters. PK/PD blood sampling was performed on Day 1 (SAD/MAD) and Day 14 (MAD) and up to 72 h after the last dose and at the end-of-study visit. PD parameters included 2,3-DPG, ATP, and p50 in all cohorts with additional PD studies (including oxygen scan) performed only in the SCD cohorts. PD parameters included 2,3-DPG, ATP, p50, RBC deformability with controlled deoxygenation and reoxygenation (Lorrca® oxygen scan) and varying osmolality (Lorrca® osmoscan)). To maintain study blind, pt identifiers were removed when needed.
A potential exposure to the maximum PD response dose range to evaluate in patients with SCD was identified. Based on the safety and PK/PD profile in healthy volunteer studies, a 700 mg single dose was evaluated in patients with SCD (n=7). A single 700 mg dose of Compound 1 was selected to evaluate in patients with SCD to enable daily dosing cohorts at lower exposures.
The effects of a single dose of Compound 1 (700 mg) versus placebo on oxygen scan, oxygen affinity (p50), and osmoscan in SCD patients were evaluated. At the Point of Sickling (POS or PoS), polymerization of de-oxy HbS can affect the deformability of the RBCs and the elongation Index starts to decrease. The EImin refers to the lowest level of RBC deformability in the Oxygenscan. The lower the EImin the lower the deformability of the RBC. […] As shown in FIG. 53 and Table 25 (Oxygen affinity curve), Compound 1 increased O2 affinity (decreased p50) in all participants treated. […] These effects were transient, returning to baseline 3 to 7 days after the single dose of Compound 1.
The oxygen affinity of RBCs was measured in patient blood using a Hemox Analyzer (TCS Scientific Corp.), an automatic system for the recording of blood oxygen equilibrium curves and related phenomena. The Hemox Analyzer was used according to standard methods to determine the hemoglobin-oxygen dissociation curves for whole blood samples, numerically characterized by the p50, the partial pressure of oxygen at which hemoglobin is 50% saturated. […] In the case of hemoglobin, the wavelength of maximum absorbance is the measuring wavelength (560 nm), while the reference wavelength is at the isosbestic point at (570 nm). The absorbance at the isosbestic point remains unchanged during the deoxygenation process of the hemoglobin, however the measuring wavelength (560 nm) undergoes a drastic change in absorbance. This change is detected by the electronic circuitry and is plotted as the log/ratio change between the two wavelengths. The log/ratio measurement at 560 nm and 570 nm is utilized to measure the optical absorbance change during the deoxygenation of the hemoglobin. Simultaneously with the measurement of the hemoglobin absorbance, the oxygen concentration is directly measured in the sample using a Clark electrode. […]

[1] = SCD patients, 24 hours after single 700-mg dose

SMILES: O=C([C@H](CO)c1ccccc1)N1CC2=C(C1)CN(S(=O)(=O)c1cnc3c(c1)OCCO3)C2 (single isomer, unassigned) [Compound 1]
- decrease of 2,3-DPG blood concentrations [1]: 26%
- increase of ATP blood concentrations [1]: 30%
- Hb increase compared with placebo (SCD, 24 h after a single dose): ~0.9 g/dL
- POS (Oxygenscan), post-dose (24 hours) (SCD, single 700 mg, median (range), pre-dose 35.4 (27.3, 38.8)): 24.0 (17.9, 31.8)
- Ohyper (Osmoscan), post-dose (24 hours) (SCD, single 700 mg, median (range), pre-dose 380 (371, 399)): 400 (371, 412)
